{"source": "patent US6639123B1", "about": "“Melanocortin-3 receptor deficient cells, non-human trangenic animals and methods of selecting compounds which regulate body weight” (Merck & Co., Inc., priority 1999, dated 2003)", "test_system": "male MC-3R^−/− and WT mice", "assay": "Peripheral MTII administration: 24-h food consumption", "settings": "single intraperitoneal injection, 10 mg/kg, n=9, P<0.05", "description": "Peripheral MTII administration—For seven consecutive days, individually-housed 23-25-week-old male MC-3R^−/− (n=9) and WT (n=9) mice received an intraperitoneal (ip) injection of a sterile 0.9% NaCl vehicle solution approximately 30 min before the onset of the dark phase of the light cycle. At the same time on the eighth consecutive day of the study, mice received an ip injection of MTII at a dose of 10 mg/kg delivered in vehicle. Body and food (Teklad 7012) weights were measured and recorded daily approximately 15 min prior to injection.", "data": [{"substance": "MTII", "values": [{"measurement": "reduction of food consumption over a 24-h period relative to a 2-day vehicle treatment baseline", "setting": "MC-3R^−/− male mice", "result": "16.9±7.0", "unit": "%"}, {"measurement": "reduction of food consumption over a 24-h period relative to a 2-day vehicle treatment baseline", "setting": "WT male mice", "result": "11.1±4.3", "unit": "%"}]}]}
